Patent US20230330093A1, “APPLICATION OF NITROGEN-CONTAINING SATURATED HETEROCYCLIC COMPOUND” (SHANGHAI PHARMACEUTICALS HOLDING CO., LTD., priority 2020, published 2023)
Values joined by “and” are separate entries in the source; they are usually repeats but may differ in a detail not shown here. Identical values can stand only once. “Also recorded” adds a separate entry of the source.

What was measured:
Assay type in all cases: in vivo, Macaca mulatta (Rhesus Macaque)
[1] = test system: rhesus monkeys with spontaneous chronic kidney disease; assay: Effect on blood pressure (SBP, DBP, MBP, HR) after anesthesia, 8-week administration; settings: for DBP reduced by on average, compared with the baseline / SBP reduced by on average, compared with the baseline: after W8 administration
Source text: In the trial, animals were brought in three stages.
Route of administration: Oral administration.
After anesthesia, the animal was placed in a supine position. The left upper arm was shaved clean, and a suitable size cuff was tied according to the standard. The blood oxygen probe was clamped on the animal's finger or toe (except for the left hand), and the red light-sensitive surface was on the side of the finger pad. The blood pressure of the animal was continuously measured for 3 times in the automatic mode with an interval of 1 min. If the difference of DBP, SBP and MBP of blood pressure measured more than three times was not significant (the difference between the highest value and the lowest value was less than 15 mmHg), the measurement was completed.
Testing equipment: GE B40i electrophysiological monitor.
See Table 16 for the effects of administration of each administration group on blood pressure. The blood pressure test of primates required anesthesia, so it was necessary to control the variability of heart rate at various time points to make statistics.

[2] = test system: rhesus monkeys with spontaneous chronic kidney disease; assay: Effect on BUN, 8-week administration
Description: (§1) In the trial, animals were brought in three stages. […] Glomerular filtration rate […]: creatinine (Cr-P), urea nitrogen (BUN) and cystatin (CysC) were detected, and the eGFR value was obtained by calculation. It was performed once before the administration and once every two weeks after the administration. […] ELISA kit was used for NT-proBNP test. [table]

[3] = test system: rhesus monkeys with spontaneous chronic kidney disease; assay: Effect on plasma creatinine Cr-P, 8-week administration
Description: as §1

[4] = test system: rhesus monkeys with spontaneous chronic kidney disease; assay: Effect on NT-proBNP (ELISA), 8-week administration
Source text: In the trial, animals were brought in three stages. […] ELISA kit was used for NT-proBNP test. [table]

[5] = 2 mg/kg qd (n = 5), 8 weeks, mean
[6] = 2 mg/kg qd (n=5), P<0.01 vs placebo
[7] = 5 mg/kg qd (n = 6), 8 weeks, mean
[8] = 5 mg/kg qd (n=6), p<0.01 vs placebo
[9] = 1 mg/kg (n = 5), Baseline, single animals and Mean ± SD
[10] = 1 mg/kg (n = 5), Baseline, single animals and Mean ± SD, mean
[11] = 2 mg/kg (n = 5), Baseline, single animals and Mean ± SD
[12] = 2 mg/kg (n = 5), Baseline, single animals and Mean ± SD, mean
[13] = 5 mg/kg (n = 6), Baseline, single animals and Mean ± SD
[14] = 5 mg/kg (n = 6), Baseline, single animals and Mean ± SD, mean

SMILES: COC(=O)NCCCn1nc([C@@H](C)N(C(=O)[C@H]2CNCCO2)C2CC2)c2ccc(C)nc21.O=C(O)C[C@H](O)C(=O)O [malate of compound of Formula I]
- DBP [1, 5]: 64 ± 8 mmHg
- SBP [1, 5]: 128 ± 21 mmHg
- DBP ([1]; 2 mg/kg qd (n = 5), Baseline): 58 mmHg and 56 mmHg and 78 mmHg and 83 mmHg and 74 mmHg
- DBP ([1]; 2 mg/kg qd (n = 5), Baseline, mean): 70 ± 12 mmHg
- SBP ([1]; 2 mg/kg qd (n = 5), Baseline, single animals and Mean ± SD): 126 mmHg and 111 mmHg and 184 mmHg and 143 mmHg and 137 mmHg
- SBP ([1]; 2 mg/kg qd (n = 5), Baseline, single animals and Mean ± SD, mean): 140 ± 27 mmHg
- DBP reduced by on average, compared with the baseline [1, 6]: 9±8 mmHg
- SBP reduced by on average, compared with the baseline [1, 6]: 19±9 mmHg
- SBP ([1]; 5 mg/kg qd (n = 6), 4 weeks): 136 mmHg and 124 mmHg and 159 mmHg and 144 mmHg and 139 mmHg
- SBP ([1]; 5 mg/kg qd (n = 6), 4 weeks, mean): 138 ± 12 mmHg
- DBP ([1]; 5 mg/kg qd (n = 6), 8 weeks): 57 mmHg and 97 mmHg and 60 mmHg and 59 mmHg
- SBP ([1]; 5 mg/kg qd (n = 6), 8 weeks): 114 mmHg and 161 mmHg and 121 mmHg and 128 mmHg
- DBP [1, 7]: 66 ± 15 mmHg
- SBP [1, 7]: 129 ± 16 mmHg
- DBP ([1]; 5 mg/kg qd (n = 6), Baseline): 63 mmHg and 105 mmHg and 74 mmHg and 97 mmHg and 70 mmHg and 71 mmHg
- DBP ([1]; 5 mg/kg qd (n = 6), Baseline, mean): 80 ± 17 mmHg
- SBP ([1]; 5 mg/kg qd (n = 6), Baseline, single animals and Mean ± SD): 132 mmHg and 159 mmHg and 127 mmHg and 180 mmHg and 154 mmHg and 149 mmHg
- SBP ([1]; 5 mg/kg qd (n = 6), Baseline, single animals and Mean ± SD, mean): 150 ± 19 mmHg
- DBP reduced by on average, compared with the baseline [1, 8]: 10±7 mmHg
- SBP reduced by on average, compared with the baseline [1, 8]: 21±8 mmHg
- activity of lowering blood pressure ([1]; 1-5 mg/kg qd for 8 weeks): showed the activity of lowering the blood pressure; also recorded: the activity of lowering blood pressure was shown
- BUN ([2]; 1 mg/kg (n = 5), Baseline2, single animals and Mean ± SD): 35.1 mg/dL and 32.4 mg/dL and 19.3 mg/dL and 39.8 mg/dL and 40.8 mg/dL
- BUN ([2]; 1 mg/kg (n = 5), Baseline2, single animals and Mean ± SD, mean): 33.5 ± 8.6 mg/dL
- BUN ([2]; 2 mg/kg (n = 5), 4 weeks): 42.7 mg/dL and 37.1 mg/dL and 22.9 mg/dL and 41.6 mg/dL and 30.4 mg/dL
- BUN ([2]; 2 mg/kg (n = 5), 4 weeks, mean): 34.9 ± 8.3 mg/dL
- BUN ([2]; 2 mg/kg (n = 5), Baseline2, single animals and Mean ± SD): 37.5 mg/dL and 24.2 mg/dL and 18.7 mg/dL and 42.1 mg/dL and 25.4 mg/dL
- BUN ([2]; 2 mg/kg (n = 5), Baseline2, single animals and Mean ± SD, mean): 29.6 ± 9.8 mg/dL
- BUN ([2]; 5 mg/kg (n = 6), Baseline2, single animals and Mean ± SD): 18.6 mg/dL and 37.3 mg/dL and 41.3 mg/dL and 77.3 mg/dL and 18.1 mg/dL and 81.2 mg/dL
- BUN ([2]; 5 mg/kg (n = 6), Baseline2, single animals and Mean ± SD, mean): 45.6 ± 27.7 mg/dL
- Cr-P ([3]; 1 mg/kg (n = 5), 2 weeks): 1.21 mg/dL and 1.07 mg/dL and 1.12 mg/dL and 1.13 mg/dL and 1.24 mg/dL
- Cr-P ([3]; 1 mg/kg (n = 5), 2 weeks, mean): 1.15 ± 0.07 mg/dL
- Cr-P ([3]; 1 mg/kg (n = 5), 4 weeks): 1.11 mg/dL and 1.01 mg/dL and 1.12 mg/dL and 1.06 mg/dL and 1.26 mg/dL
- Cr-P ([3]; 1 mg/kg (n = 5), 4 weeks, mean): 1.11 ± 0.09 mg/dL
- Cr-P ([3]; 1 mg/kg (n = 5), 6 weeks): 1.16 mg/dL and 1.07 mg/dL and 1.22 mg/dL
- Cr-P ([3]; 1 mg/kg (n = 5), 6 weeks, mean): 1.12 ± 0.07 mg/dL
- Cr-P ([3]; 1 mg/kg (n = 5), 8 weeks): 1.14 mg/dL and 1.01 mg/dL and 1.17 mg/dL and 1.18 mg/dL and 1.22 mg/dL
- Cr-P ([3]; 1 mg/kg (n = 5), 8 weeks, mean): 1.14 ± 0.08 mg/dL
- Cr-P [3, 9]: 1.25 mg/dL and 1.03 mg/dL and 1.09 mg/dL and 1.05 mg/dL and 1.21 mg/dL
- Cr-P [3, 10]: 1.13 ± 0.10 mg/dL
- Cr-P ([3]; 2 mg/kg (n = 5), 2 weeks): 1.1 mg/dL and 1.19 mg/dL and 1.52 mg/dL and 1.54 mg/dL and 1.11 mg/dL
- Cr-P ([3]; 2 mg/kg (n = 5), 2 weeks, mean): 1.29 ± 0.22 mg/dL
- Cr-P ([3]; 2 mg/kg (n = 5), 4 weeks): 1.15 mg/dL and 1.44 mg/dL and 1.47 mg/dL and 1.26 mg/dL and 1.09 mg/dL
- Cr-P ([3]; 2 mg/kg (n = 5), 4 weeks, mean): 1.28 ± 0.17 mg/dL
- Cr-P ([3]; 2 mg/kg (n = 5), 6 weeks): 1.17 mg/dL and 1.27 mg/dL and 1.43 mg/dL and 1.34 mg/dL and 1.04 mg/dL
- Cr-P ([3]; 2 mg/kg (n = 5), 6 weeks, mean): 1.25 ± 0.15 mg/dL
- Cr-P ([3]; 2 mg/kg (n = 5), 8 weeks): 1.17 mg/dL and 1.29 mg/dL and 1.4 mg/dL and 1.3 mg/dL and 1.11 mg/dL
- Cr-P ([3]; 2 mg/kg (n = 5), 8 weeks, mean): 1.25 ± 0.11 mg/dL
- Cr-P [3, 11]: 1.15 mg/dL and 1.14 mg/dL and 1.36 mg/dL and 1.42 mg/dL and 1.06 mg/dL
- Cr-P [3, 12]: 1.23 ± 0.16 mg/dL
- Cr-P ([3]; 5 mg/kg (n = 6), 2 weeks): 0.92 mg/dL and 1.14 mg/dL and 0.88 mg/dL and 1.12 mg/dL and 1.40 mg/dL and 0.96 mg/dL
- Cr-P ([3]; 5 mg/kg (n = 6), 2 weeks, mean): 1.07 ± 0.19 mg/dL
- Cr-P ([3]; 5 mg/kg (n = 6), 4 weeks): 0.85 mg/dL and 1.26 mg/dL and 0.89 mg/dL and 1.15 mg/dL and 1.13 mg/dL and 1.33 mg/dL
- Cr-P ([3]; 5 mg/kg (n = 6), 4 weeks, mean): 1.10 ± 0.19 mg/dL
- Cr-P ([3]; 5 mg/kg (n = 6), 6 weeks): 0.87 mg/dL and 1.42 mg/dL and 1.02 mg/dL and 1.06 mg/dL and 1.12 mg/dL and 1.32 mg/dL
- Cr-P ([3]; 5 mg/kg (n = 6), 6 weeks, mean): 1.14 ± 0.20 mg/dL
- Cr-P ([3]; 5 mg/kg (n = 6), 8 weeks): 0.85 mg/dL and 1.22 mg/dL and 0.95 mg/dL and 1.04 mg/dL and 1.11 mg/dL and 1.18 mg/dL
- Cr-P ([3]; 5 mg/kg (n = 6), 8 weeks, mean): 1.06 ± 0.14 mg/dL
- Cr-P [3, 13]: 0.90 mg/dL and 1.53 mg/dL and 1.10 mg/dL and 0.99 mg/dL and 1.43 mg/dL and 1.79 mg/dL
- Cr-P [3, 14]: 1.29 ± 0.35 mg/dL
- NT-proBNP [4, 9]: 88 pg/mL and 299 pg/mL and 127 pg/mL and 203 pg/mL and 44 pg/mL
- NT-proBNP [4, 10]: 152 ± 101 pg/mL
- NT-proBNP [4, 11]: 43 pg/mL and 155 pg/mL and 335 pg/mL and 46 pg/mL and 250 pg/mL
- NT-proBNP [4, 12]: 166 ± 127 pg/mL
- NT-proBNP ([4]; 5 mg/kg (n = 6), 8 weeks): 261 pg/mL and 146 pg/mL and 250 pg/mL and 197 pg/mL and 180 pg/mL
- NT-proBNP ([4]; 5 mg/kg (n = 6), 8 weeks, mean): 231 ± 73 pg/mL
- NT-proBNP [4, 13]: 312 pg/mL and 88 pg/mL and 211 pg/mL and 432 pg/mL and 177 pg/mL and 162 pg/mL
- NT-proBNP [4, 14]: 230 ± 123 pg/mL
